Results on eleven molecules are retold here after ChEMBL document CHEMBL1201862, “PubChem BioAssay data set” (2004).

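Where inhibition never reached the appropriate level, the endpoint shown equals the highest concentration tested. Otherwise, values were interpolated linearly from a five-concentration, 48-hour dose response in 96-well plates. GI50 = concentration required for 50% inhibition of growth.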 The source made the active and inactive calls. Cut-off read from the data, not from the text of the source: active = GI50 up to about 1.1 µM and inactive = higher.

Some test systems named below: KM12; SNB-75; OVCAR-4; NCI/ADR-RES; SF-539; HCT-15; UO-31; K562; M14; MDA-N; SK-MEL-2; MCF7; SW-620; BT-549; OVCAR-3; HL-60; HCC 2998; NCI-H522; UACC-62; T47D.
Holding throughout (test): DTP human tumour cell line panel, 48 h

One may read the GI50 as the concentration at which growth is held to half of that of the control.

As for `Nc1ccc2c(c1)N(C(=O)CCCC(=O)N1CC(CCl)c3ccc(N)cc31)CC2CCl` (stereo unspecified), the 50% growth inhibitory concentration (GI50) with KM12 was 0.948 µM (active); with SNB-75, 0.535 µM (active); in the test with OVCAR-4, 0.867 µM (active); in the test on NCI/ADR-RES, 1.15 µM (inactive); with SF-539, 0.461 µM (active); with HCT-15, 1.24 µM. The GI50 in the test on UO-31 was 0.561 µM (active); in the test on K562, 0.873 µM (active); in the test with M14 it was 0.604 µM (active); in the test with MDA-N, 1.06 µM (active); in the test on SK-MEL-2, 0.587 µM (active); in the test on MCF7 it was 0.333 µM (active). Moreover, the GI50 in the test with SW-620 was 0.977 µM (active); in the test on BT-549, 0.719 µM (active); in the test with OVCAR-3, 0.971 µM (active); in the test on HL-60, 0.0199 µM (active); in the test with HCC 2998 it was 1.45 µM (inactive); in the test on NCI-H522, 0.0713 µM (active). The GI50 in the test on UACC-62 was 0.354 µM (active).

For `Oc1cn(-c2ccc(Cl)cc2)nc1-c1nnc(Nc2ccccc2)o1`, the GI50 was 17.7 µM (inactive) in the test on KM12; 20.8 µM (inactive) in the test on SNB-75; 34.8 µM (inactive) with OVCAR-4; 14.9 µM (inactive) in the test with NCI/ADR-RES; 15.3 µM (inactive) in the test with SF-539; 10.4 µM in the test on HCT-15. The GI50 was 14.3 µM (inactive) in the test on UO-31; 19.6 µM (inactive) with M14; 20.2 µM (inactive) in the test with SK-MEL-2; 16.9 µM (inactive) in the test on MCF7; 19.1 µM (inactive) in the test on SW-620; 31.8 µM (inactive) in the test on OVCAR-3. The GI50 with T47D was 23 µM (inactive); with NCI-H522 it was 17.3 µM (inactive); in the test with UACC-62 it was 16.6 µM (inactive).

Turning to `CC1(C)[N+]([O-])=[N+]([O-])C1(Br)c1ccccc1` (stereo unspecified), the GI50 with KM12 is 89.1 µM (inactive); in the test with SNB-75 it was > 100 µM (inactive); with OVCAR-4, 82.2 µM (inactive); in the test on NCI/ADR-RES, 43.9 µM (inactive); in the test with SF-539, > 100 µM (inactive); with HCT-15 it was 64.6 µM. The GI50 in the test on UO-31 was 28.8 µM (inactive); with K562, 85.7 µM (inactive); in the test with M14, > 100 µM (inactive); with MDA-N, > 100 µM (inactive); in the test on SK-MEL-2, > 100 µM (inactive); in the test with MCF7 it was 72.9 µM (inactive). For the same molecule, the GI50 in the test on SW-620 is > 100 µM (inactive); in the test on OVCAR-3, 39.2 µM (inactive); in the test on T47D, > 100 µM (inactive); with HL-60, 33 µM (inactive); with HCC 2998, > 100 µM (inactive); in the test with UACC-62, > 100 µM (inactive).

For the molecule `C=C(C)[C@H]1CC[C@@]23O[C@@H]2[C@@H](C[C@@]2(C)CC(=O)[C@H](CC(=O)C1)O2)OC(=O)[C@@]12CC[C@H](C(=C)C)CC(=O)C[C@H]4O[C@](C)(CC4=O)C[C@@H](OC3=O)[C@@H]1O2` [SINGARDIN], the GI50 was 52.5 µM (inactive) in the test on KM12; > 100 µM (inactive) in the test with SNB-75; > 100 µM (inactive) in the test with OVCAR-4; > 100 µM (inactive) in the test on NCI/ADR-RES; > 100 µM (inactive) in the test on SF-539; greater than 100 µM in the test with HCT-15. In addition, the GI50 in the test on UO-31, with K562, in the test with M14, with MDA-N, with SK-MEL-2 and in the test with MCF7 was > 100 µM (inactive) throughout. The GI50 with OVCAR-3, in the test with T47D, in the test on HL-60, with HCC 2998, in the test with NCI-H522 and in the test on UACC-62 was > 100 µM (inactive) throughout.

Regarding `O=C(O)c1cc(/C=C/c2cc(O)ccc2O)ccc1O`, the GI50 in the test on OVCAR-4 is > 10 µM (inactive); in the test with NCI/ADR-RES it was > 10 µM (inactive); in the test on SF-539, > 10 µM (inactive); in the test on HCT-15 it was greater than 10 µM; in the test with UO-31, > 10 µM (inactive); in the test with K562 it was 2.85 µM (inactive). For the same molecule, the GI50 in the test with M14 was > 10 µM (inactive); in the test with MDA-N it was 3.43 µM (inactive); with SK-MEL-2, > 10 µM (inactive); with MCF7, 3.91 µM (inactive); with SW-620, > 10 µM (inactive); in the test on BT-549, > 10 µM (inactive). Also, the GI50 in the test on OVCAR-3, in the test on HL-60, in the test with HCC 2998, with NCI-H522 and in the test on UACC-62 was > 10 µM (inactive) throughout.

Consider `O=C(Cc1ccccc1)NN1C(=O)/C(=C\c2ccc([N+](=O)[O-])cc2)S/C1=N\c1ccccc1`, for which the GI50 in the test on KM12 was > 100 µM (inactive); in the test on SNB-75, > 100 µM (inactive); in the test on OVCAR-4 it was > 100 µM (inactive); in the test with NCI/ADR-RES it was > 100 µM (inactive); with SF-539, > 100 µM (inactive); with HCT-15, greater than 100 µM. The GI50 in the test on UO-31 is > 100 µM (inactive); with K562 it was 42.5 µM (inactive); in the test on M14, > 100 µM (inactive); with SK-MEL-2, > 100 µM (inactive); in the test on MCF7, 63.2 µM (inactive); in the test with SW-620 it was > 100 µM (inactive). Besides, the GI50 in the test with OVCAR-3 was 47.8 µM (inactive); in the test on T47D, 62.1 µM (inactive); in the test on HCC 2998, > 100 µM (inactive); with UACC-62 it was 61.1 µM (inactive).

As for `Cc1cccc2c(NCCN(C)C)c3cccc(C(=O)NCCN(C)C)c3nc12`, the GI50 in the test with KM12 is 0.0692 µM (active); in the test on SNB-75 it was 0.357 µM (active); with OVCAR-4, 0.207 µM (active); with NCI/ADR-RES it was 0.446 µM (active); in the test on SF-539, 0.0649 µM (active); in the test with HCT-15 it was 0.14 µM. In addition, the GI50 was 0.326 µM (active) in the test with UO-31; 0.0278 µM (active) with K562; 0.578 µM (active) in the test with M14; 0.265 µM (active) with MDA-N; 0.54 µM (active) in the test with SK-MEL-2; 0.0656 µM (active) with MCF7. The 50% growth inhibitory concentration (GI50) in the test with SW-620 was 0.0276 µM (active); in the test with OVCAR-3 it was 0.31 µM (active); in the test with T47D it was 1.81 µM (inactive); in the test with HL-60, 0.24 µM (active); in the test with HCC 2998, < 0.0455 µM (active); with NCI-H522 it was < 0.0486 µM (active). Besides, the GI50 in the test on UACC-62 is 0.135 µM (active).

For `C=C[C@@H]1C(CO)=CCC2[C@H]1CCC1C(C)(C)C(=O)CC[C@]21C` (stereo partly specified), the GI50 in the test with KM12 was > 100 µM (inactive); in the test with OVCAR-4, > 100 µM (inactive); in the test on NCI/ADR-RES it was > 100 µM (inactive); with SF-539, > 100 µM (inactive); in the test with HCT-15, greater than 100 µM; in the test on UO-31, > 100 µM (inactive). Besides, the GI50 in the test with K562, in the test on M14, with MDA-N, in the test on SK-MEL-2, in the test with MCF7 and with SW-620 was > 100 µM (inactive) each time. Moreover, the GI50 in the test on OVCAR-3 is > 100 µM (inactive); with T47D, > 100 µM (inactive); in the test on HL-60, 59.3 µM (inactive); in the test with HCC 2998 it was > 100 µM (inactive); in the test with NCI-H522 it was > 100 µM (inactive); in the test with UACC-62, > 100 µM (inactive).

Regarding `C=CCCCN1C(=O)C2C3c4ccccc4C(C=O)(c4ccccc43)C2C1=O` (stereo unspecified), the GI50 in the test on KM12 was 4.02 µM (inactive); with OVCAR-4, 11.4 µM (inactive); in the test with NCI/ADR-RES, 10.9 µM (inactive); in the test with HCT-15, 8.41 µM; in the test on UO-31, 10.7 µM (inactive); in the test with K562, 3.62 µM (inactive). Besides, the GI50 in the test with MDA-N is 13.6 µM (inactive); in the test with SK-MEL-2 it was 24 µM (inactive); in the test with MCF7, 12.3 µM (inactive); in the test on SW-620, 13 µM (inactive); with OVCAR-3, 9.02 µM (inactive); in the test with T47D it was 8.91 µM (inactive). Further, the GI50 was 9.89 µM (inactive) with HL-60, 14.7 µM (inactive) with HCC 2998, 8.57 µM (inactive) in the test with NCI-H522 and 9.42 µM (inactive) in the test on UACC-62.

For the molecule `COC1(c2ccc(Cl)cc2)SC=C(C)n2c1noc2=O` (stereo unspecified), the GI50 was 86.9 µM (inactive) in the test with KM12; 63.8 µM (inactive) with OVCAR-4; 10.5 µM (inactive) in the test with NCI/ADR-RES; greater than 100 µM with HCT-15; > 100 µM (inactive) in the test on UO-31; > 100 µM (inactive) with K562. Besides, the GI50 in the test with M14 is > 100 µM (inactive); in the test on MDA-N, > 100 µM (inactive); in the test with MCF7, > 100 µM (inactive); in the test with SW-620, > 100 µM (inactive); in the test with BT-549 it was > 100 µM (inactive); in the test on OVCAR-3 it was 29.7 µM (inactive). In addition, the GI50 is > 100 µM (inactive) in the test on HL-60, > 100 µM (inactive) with HCC 2998, 89.5 µM (inactive) in the test on NCI-H522 and > 100 µM (inactive) in the test on UACC-62.

Consider `CCOC(=O)C1Cc2c(cc3c4c(cccc24)N(C(C)=O)C3)N(C)C1` (stereo unspecified), for which the GI50 in the test on KM12 was 4.17 µM (inactive); in the test on SNB-75, 24.2 µM (inactive); with OVCAR-4 it was 84.9 µM (inactive); with NCI/ADR-RES, 1.64 µM (inactive); in the test on SF-539, 3.18 µM (inactive); with HCT-15 it was greater than 100 µM. Moreover, the GI50 with UO-31 is 1.07 µM (active); in the test with K562, 4.39 µM (inactive); with M14 it was 29.9 µM (inactive); in the test on MDA-N, 1.67 µM (inactive); in the test with SK-MEL-2, > 100 µM (inactive); in the test with MCF7 it was 32.7 µM (inactive). Also, the GI50 in the test on SW-620 was 4.86 µM (inactive); with OVCAR-3, 1.44 µM (inactive); with T47D, 5.58 µM (inactive); with HL-60 it was 11.3 µM (inactive); in the test on HCC 2998 it was > 100 µM (inactive); in the test with NCI-H522, 0.0681 µM (active). Also, in the test on UACC-62, the GI50 is 13.4 µM (inactive).
